One data set is described as follows: Aqueous solubility. In kind it is physicochemical. As to conditions: water.
The test system of the next data set is human blood platelets. Put plainly: In vitro inhibition of ADP-induced human platelet aggregation in platelet-rich plasma (aggregometer method of Born). As to conditions: for IC50: Homo sapiens, Platelet, read-out: IC50 vs ADP in human PRP, human PRP, 3 min preincubation at about 37° C., final ADP 5.86 mM (so in the source).
[1] abbreviates: free base (* footnote), read-out: Aqueous Solubility of Free Base.
Where [2] appears, read: not marked as free base, read-out: Aqueous Solubility.

SMILES strings stand for the structures. Converted amounts (≈) assume the structure as drawn. Where a name gives a salt, the structure may show the parent alone. Read-outs that look alike come from different tables or passages of the source. Some results are limits rather than exact numbers.

Broadly, the solubility is the concentration that dissolves in the medium under given conditions. What is called IC50 is the point on the concentration scale where inhibition reaches its midpoint.

Protocol for human blood platelets: The aggregometer method of Born, G. V. R., J. Physiol., (London), 162, 67-68, (1962) as modified by Mustard, J. F., et al., J. Lab. Clin. Med., 64, 548-599, (1964) was used to assess the in vitro activity of the various compounds as to the inhibition of adenosine diphosphate (ADP) and collagen-induced platelet aggregation. The human volunteer donor's arm is cleansed with 70% ethyl alcohol. A sterile 20 ml syringe and needle are used to withdraw 20 ml of blood. The blood is immediately added to a test tube containing 3.8% sodium citrate to prevent clotting (1 part citrate to 9 parts blood).
Platelet rich plasma (PRP) was separated by centrifugation for 10 minutes at 1000 rpm (140xg) from citrated (3.8%) human blood. All glassware used for preparation of PRP is silicon treated. ADP in final concentration of 0.5 μg/mL or 0.05 mL of a collagen suspension prepared according to the method described by Evans, G., et al., J. Exp. Med., 128, 877-894, (1968) was used to induce aggregation. The various compounds tested were dissolved in dimethylsulfoxide (DMSO) so that 5 μl added to the platelet rich plasma would yield the desired test concentration. Vehicle control trials were done and compared with aggregation induced in platelet rich plasma containing various concentrations of the test compounds. Dose response curves were obtained and Inhibitor Concentration (IC50) values calculated.
The test compounds were incubated at about 37° C. in PRP for about 3 minutes prior to the addition of sufficient ADP to provide a final ADP concentration of 5.86 mM.

Consider `O=CN1CCN(S(=O)(=O)CCCOc2ccc3nc4[nH]c(=O)[nH]c4cc3c2)CC1` [Compound 7, 3-[[(2,3-Dihydro-2-oxo-1H-imidazo[4,5-b]quinolin-7-yl)oxy]propyl]sulfonyll-1-piperazinecarboxaldehyde], for which the solubility in “Aqueous solubility” (setting [1]) is below 1000 µg/mL. Further, the IC50 with human blood platelets is 5.6 µg/mL (≈ 13.4 µM).

For `O=c1[nH]c2cc3cc(OCCCS(=O)(=O)N4CCNCC4)ccc3nc2[nH]1` [Compound 8, 1-[[3-[(2,3-Dihydro-2-oxo-1H-imidazo[4,5-b]quinolin-7-yl)oxy]propyl]sulfonyl]piperazine], the solubility in the data set “Aqueous solubility” (setting [1]) was around 1000 µg/mL (≈ 2550 µM). In addition, the IC50 in the data set with human blood platelets came to 7.2 µg/mL (≈ 18.4 µM).

As for `O=c1[nH]c2cc3cc(OCCCS(=O)(=O)N4CCN(Cc5ccccc5)CC4)ccc3nc2[nH]1` [Compound 9c], the solubility in the data set “Aqueous solubility” (setting [1]) was around 1000 µg/mL (≈ 2080 µM). The IC50 in the data set with human blood platelets worked out at 0.059 µg/mL (≈ 0.123 µM).

For the compound `O=c1[nH]c2cc3cc(OCCCS(=O)(=O)N4CCNCC4)ccc3nc2[nH]1` [Compound 10a, 1-[[3-[(2,3-Dihydro-2-oxo-1H-imidazo[4-5-b]quinolin-7-yl)oxy]propyl]sulfonyl]piperazine dihydrochloride], the solubility in the data set “Aqueous solubility” (setting [2]) is above 20000 µg/mL. In addition, the “IC50 vs ADP in human PRP” value with human blood platelets (human PRP, 3 min preincubation at about 37° C., final ADP 5.86 mM (so in the source), dihydrochloride) was found to be 6.4 µg/mL.

As to `Cl.Cl.O=c1[nH]c2cc3cc(OCCCS(=O)(=O)N4CCN(Cc5ccccc5)CC4)ccc3nc2[nH]1` [Compound 10c, 1-[[3-[(2,3-Dihydro-2-oxo-1H-imidazo[4,5-b]quinolin-7-yl)oxy]propyl]sulfonyl]-4-(phenylmethyl)piperazine dihydrochloride], the solubility in the data set “Aqueous solubility” (setting [2]) is above 20000 µg/mL. The IC50 in the data set on human blood platelets was determined as 0.039 µg/mL.

Turning to `Cl.Cl.O=c1[nH]c2cc3cc(OCCCS(=O)(=O)N4CCN(Cc5ccc(F)cc5)CC4)ccc3nc2[nH]1` [Compound 10d, 1-[[3-[(2,3-Dihydro-2-oxo-1H-imidazo[4,5-b]quinolin-7-yl)oxy]propyl]sulfonyl]-4-(4-fluorophenylmethyl) piperazine dihydrochloride], in “Aqueous solubility” (setting [2]), the solubility is above 20000 µg/mL. Besides, the IC50 in the data set on human blood platelets amounted to 0.16 µg/mL.

Take `Cl.Cl.O=c1[nH]c2cc3cc(OCCCS(=O)(=O)N4CCN(Cc5ccc(Cl)cc5)CC4)ccc3nc2[nH]1` [Compound 10e, 1-[[3-[(2,3-Dihydro-2-oxo-1H-imidazo[4,5-b]quinolin-7-yl)oxy]propyl]sulfonyl]-4-(4-chlorophenylmethyl) piperazine dihydrochloride]: in “Aqueous solubility” (setting [2]), the solubility was above 20000 µg/mL. In addition, in the data set with human blood platelets, the IC50 came out at 0.32 µg/mL.

As for `COc1ccc(CN2CCN(S(=O)(=O)CCCOc3ccc4nc5[nH]c(=O)[nH]c5cc4c3)CC2)cc1` [Compound 10f, 1-[[3-[(2,3-Dihydro-2-oxo-1H-imidazo[4,5-b]quinolin-7-yl)oxy]propyl]sulfonyl]-4-[(4-methoxyphenylmethyl)piperazinedihydrochloride], in “Aqueous solubility” (setting [2]), the solubility was above 20000 µg/mL. In addition, in the data set with human blood platelets, the IC50 amounted to 0.27 µg/mL.

Regarding `Cl.Cl.O=c1[nH]c2cc3cc(OCCCS(=O)(=O)N4CCN(CC5CCCCC5)CC4)ccc3nc2[nH]1` [Compound 10g, 1-[[3-[(2,3-Dihydro-2-oxo-1H-imidazo[4,5-b]quinolin-7-yl)oxy]propyl]sulfonyl]-4-(cyclohexylmethyl) piperazine dihydrochloride], the solubility in the data set “Aqueous solubility” (setting [2]) was above 20000 µg/mL. Besides, the IC50 in the data set with human blood platelets came out at 0.064 µg/mL.

For `Cl.Cl.O=c1[nH]c2cc3cc(OCCCS(=O)(=O)N4CCN(c5nc6ccccc6o5)CC4)ccc3nc2[nH]1` [Compound 10h, 1-(Benzoxazol-2-yl)-4-[[3-[(2,3-dihydro-2-oxo-1H-imidazo[4,5-b]quinolin-7-yl)oxy]propyl]sulfonyl]piperazine dihydrochloride], the solubility in the data set “Aqueous solubility” (setting [2]) was above 20000 µg/mL. Further, the IC50 in the data set on human blood platelets worked out at 1.4 µg/mL.

Take `Cl.O=c1[nH]c2cc3cc(OCCCS(=O)(=O)N4CCN(c5nc6ccccc6s5)CC4)ccc3nc2[nH]1` [Compound 10i, 1-(Benzothiazol-2-yl)-4-[[3-[(2,3-dihydro-2-oxo-1H-imidazo[4,5-b]quinolin-7-yl)oxy]propyl]sulfonyl]piperazine hydrochloride]: the solubility in the data set “Aqueous solubility” (setting [2]) is around 1000 µg/mL. Also, in the data set with human blood platelets, the IC50 came to 2.8 µg/mL.

Turning to `Cl.Cl.O=c1[nH]c2cc3cc(OCCCS(=O)(=O)N4CCN(CCC5CCCCC5)CC4)ccc3nc2[nH]1` [Compound 10j, 1-[[3-[(2,3-Dihydro-2-oxo-1H-imidazo[4,5-b]quinolin-7-yl)oxy]propyl]sulfonyl]-4-(2-cyclohexylethyl) piperazine dihydrochloride], the solubility in the data set “Aqueous solubility” (setting [2]) is below 5000 µg/mL. Further, the IC50 with human blood platelets stood at 1.2 µg/mL.

Regarding `O=c1[nH]c2cc3cc(OCCCS(=O)(=O)N4CCN(CCc5ccccc5)CC4)ccc3nc2[nH]1` [Compound 10k, 3-[[(2,3-Dihydro-2-oxo-1H-imidazo[4,5-b]quinolin-7-yl)oxy]propyl]sulfonyl]-4-(2-phenylethyl)piperazine dihydrochloride], the solubility in the data set “Aqueous solubility” (setting [2]) is below 10000 µg/mL. Also, the IC50 in the data set on human blood platelets worked out at 0.6 µg/mL.

As to `CCC(CC)CN1CCN(S(=O)(=O)CCCOc2ccc3nc4[nH]c(=O)[nH]c4cc3c2)CC1` [Compound 10l, 1-[[3-(2,3-Dihydro-2-oxo-1H-imidazo-[4,5-b]quinolin-7-yl)oxy]propyl]sulfonyl]-4-(2-ethylbut-1-yl)piperazine dihydrochloride], in the data set “Aqueous solubility” (setting [2]), the solubility was above 10000 µg/mL. In the data set on human blood platelets, the IC50 came to 0.09 µg/mL.

Turning to `Cl.Cl.O=c1[nH]c2cc3cc(OCCCS(=O)(=O)N4CCN(Cc5cccc(C(F)(F)F)c5)CC4)ccc3nc2[nH]1` [Compound 10m, 1-[[3-[(2,3-Dihydro-2-oxo-1H-imidazo[4,5-b]quinolin-7-yl)oxy]propyl]sulfonyl]-4-[(3-trifluoromethylphenyl)methyl]piperazine dihydrochloride], the solubility in “Aqueous solubility” (setting [2]) is around 2000 µg/mL. Besides, in the data set on human blood platelets, the 50% inhibitory concentration (IC50) amounted to 0.2 µg/mL.

Source of the values: patent US5208237A, “7-oxypropylsulfonamido-imidazo[4,5-b]quinolin-2-ones” (Bristol-Meyers Squibb Company, priority 1992, dated 1993).
